Results taken from publication PMC6494879, “Drug resistance emergence in macaques administered cabotegravir long-acting for pre-exposure prophylaxis during acute SHIV infection” (Nature Communications, 2019).

What was measured:
[1] = ECLAIR trial; cited from earlier work
[2] = system: RT-SHIV; experiment: Plasma SHIV RNA (RT-PCR) in RT-SHIV-infected macaques treated with CAB LA
Procedure: CAB LA (200 mg/mL injectable stock aqueous suspension) was given at a dose of 50 mg kg^−1 under anesthesia by intramuscular injection into the quadriceps. Volumes greater than 1.0 mL were divided into two injection sites.

For C[C@H]1CO[C@@H]2Cn3cc(C(=O)NCc4ccc(F)cc4F)c(=O)c(O)c3C(=O)N12 [CAB, cabotegravir], the “subjects with CAB still detectable 52 weeks after the last injection” value [1] is listed as 14%, the “SHIV RNA copies/ml” value ([2]; macaque 01D520, day 14) is listed as 213778 copies/ml and the “SHIV RNA copies/ml” value ([2]; macaque 01D520, day 16) is listed as 25703 copies/ml. The “SHIV RNA copies/ml” value ([2]; macaque 01D520, day 18) was 6247 copies/ml, the “SHIV RNA copies/ml” value ([2]; macaque 01D520, day 22) was 1187 copies/ml and the “SHIV RNA copies/ml” value ([2]; macaque 01D520, day 25) was 478 copies/ml. The “SHIV RNA copies/ml” value ([2]; macaque 01D520, day 29) was 2040 copies/ml, the “SHIV RNA copies/ml” value ([2]; macaque 01D520, day 32) was 390 copies/ml and the “SHIV RNA copies/ml” value ([2]; macaque 01D520, day 36) was 49 copies/ml. The “SHIV RNA copies/ml” value ([2]; macaque 01D520, day 39) was 316 copies/ml, the “SHIV RNA copies/ml” value ([2]; macaque 01D520, day 43) was 144 copies/ml and the “SHIV RNA copies/ml” value ([2]; macaque 01D520, day 46) was 49 copies/ml. The “SHIV RNA copies/ml” value ([2]; macaque 01D520, day 50) was 49 copies/ml, the “SHIV RNA copies/ml” value ([2]; macaque 01D520, day 53) was 71 copies/ml and the “SHIV RNA copies/ml” value ([2]; macaque 01D520, day 57) was 49 copies/ml. For the same compound, the “SHIV RNA copies/ml” value ([2]; macaque 01D520, day 60) was 49 copies/ml, the “SHIV RNA copies/ml” value ([2]; macaque 01D520, day 64) was 49 copies/ml and the “SHIV RNA copies/ml” value ([2]; macaque 01D520, day 67) was 250 copies/ml. For the same compound, the “SHIV RNA copies/ml” value ([2]; macaque 10D181, day 14) was 179379 copies/ml, the “SHIV RNA copies/ml” value ([2]; macaque 10D181, day 16) was 39172 copies/ml and the “SHIV RNA copies/ml” value ([2]; macaque 10D181, day 18) was 9142 copies/ml. For the same compound, the “SHIV RNA copies/ml” value ([2]; macaque 10D181, day 22) was 2006 copies/ml, the “SHIV RNA copies/ml” value ([2]; macaque 10D181, day 25) was 507 copies/ml and the “SHIV RNA copies/ml” value ([2]; macaque 10D181, day 29) was 2459 copies/ml. The “SHIV RNA copies/ml” value ([2]; macaque 10D181, day 32) was 444 copies/ml, the “SHIV RNA copies/ml” value ([2]; macaque 10D181, day 36) was 906 copies/ml and the “SHIV RNA copies/ml” value ([2]; macaque 10D181, day 39) was 1839 copies/ml. The “SHIV RNA copies/ml” value ([2]; macaque 10D181, day 43) was 2744 copies/ml, the “SHIV RNA copies/ml” value ([2]; macaque 10D181, day 46) was 344 copies/ml and the “SHIV RNA copies/ml” value ([2]; macaque 10D181, day 50) was 294 copies/ml. The “SHIV RNA copies/ml” value ([2]; macaque 10D181, day 53) was 756 copies/ml, the “SHIV RNA copies/ml” value ([2]; macaque 10D181, day 57) was 241 copies/ml and the “SHIV RNA copies/ml” value ([2]; macaque 10D181, day 60) was 971 copies/ml. The “SHIV RNA copies/ml” value ([2]; macaque 10D181, day 64) was 2139 copies/ml, the “SHIV RNA copies/ml” value ([2]; macaque 33996, day 14) was 154663 copies/ml and the “SHIV RNA copies/ml” value ([2]; macaque 33996, day 16) was 9000 copies/ml. For the same compound, the “SHIV RNA copies/ml” value ([2]; macaque 33996, day 18) was 1964 copies/ml, the “SHIV RNA copies/ml” value ([2]; macaque 33996, day 22) was 112 copies/ml and the “SHIV RNA copies/ml” value ([2]; macaque 33996, day 25) was 141 copies/ml. For the same compound, the “SHIV RNA copies/ml” value ([2]; macaque 33996, day 29) was 25 copies/ml, the “SHIV RNA copies/ml” value ([2]; macaque 33996, day 32) was 55 copies/ml and the “SHIV RNA copies/ml” value ([2]; macaque 33996, day 36) was 49 copies/ml. The “SHIV RNA copies/ml” value ([2]; macaque 33996, day 39) was 49 copies/ml, the “SHIV RNA copies/ml” value ([2]; macaque 33996, day 43) was 49 copies/ml and the “SHIV RNA copies/ml” value ([2]; macaque 33996, day 46) was 49 copies/ml. For the same compound, the “SHIV RNA copies/ml” value ([2]; macaque 33996, day 50) was 49 copies/ml, the “SHIV RNA copies/ml” value ([2]; macaque 33996, day 53) was 49 copies/ml and the “SHIV RNA copies/ml” value ([2]; macaque 33996, day 57) was 49 copies/ml. The “SHIV RNA copies/ml” value ([2]; macaque 33996, day 60) was 14 copies/ml, the “SHIV RNA copies/ml” value ([2]; macaque 33996, day 64) was 59 copies/ml and the “SHIV RNA copies/ml” value ([2]; macaque 35451, day 14) was 32948 copies/ml. For the same compound, the “SHIV RNA copies/ml” value ([2]; macaque 35451, day 16) was 24534 copies/ml, the “SHIV RNA copies/ml” value ([2]; macaque 35451, day 18) was 5566 copies/ml and the “SHIV RNA copies/ml” value ([2]; macaque 35451, day 22) was 189 copies/ml. For the same compound, the “SHIV RNA copies/ml” value ([2]; macaque 35451, day 25) was 365 copies/ml, the “SHIV RNA copies/ml” value ([2]; macaque 35451, day 29) was 487 copies/ml and the “SHIV RNA copies/ml” value ([2]; macaque 35451, day 32) was 189 copies/ml. For the same compound, the “SHIV RNA copies/ml” value ([2]; macaque 35451, day 36) was 262 copies/ml, the “SHIV RNA copies/ml” value ([2]; macaque 35451, day 39) was 194 copies/ml and the “SHIV RNA copies/ml” value ([2]; macaque 35451, day 43) was 240 copies/ml. The “SHIV RNA copies/ml” value ([2]; macaque 35451, day 46) was 77 copies/ml, the “SHIV RNA copies/ml” value ([2]; macaque 35451, day 50) was 318 copies/ml and the “SHIV RNA copies/ml” value ([2]; macaque 35451, day 53) was 134 copies/ml. For the same compound, the “SHIV RNA copies/ml” value ([2]; macaque 35451, day 57) was 132 copies/ml, the “SHIV RNA copies/ml” value ([2]; macaque 35451, day 60) was 90 copies/ml and the “SHIV RNA copies/ml” value ([2]; macaque 35451, day 64) was 800 copies/ml. The “SHIV RNA copies/ml” value ([2]; macaque 35451, day 67) was 104 copies/ml, the “SHIV RNA copies/ml” value ([2]; macaque CH54, day 14) was 680147 copies/ml and the “SHIV RNA copies/ml” value ([2]; macaque CH54, day 16) was 142531 copies/ml. The “SHIV RNA copies/ml” value ([2]; macaque CH54, day 18) was 87386 copies/ml, the “SHIV RNA copies/ml” value ([2]; macaque CH54, day 22) was 4318 copies/ml and the “SHIV RNA copies/ml” value ([2]; macaque CH54, day 25) was 279 copies/ml. For the same compound, the “SHIV RNA copies/ml” value ([2]; macaque CH54, day 29) was 2506 copies/ml.
